Results as given in US20040106626A1, “6-Membered unsaturated heterocyclic compounds useful for selective inhibition of the coagulation cascade” (Pharmacia Corporation, priority 2001, published 2004).
pIC50: −log10 of the molar value. Counter-ions that a name gives are not always drawn.

Legend:
Type in all cases: biochemical
[1] = target: T1, recombinant soluble tissue factor and recombinant human factor VIIa (TF-VIIa) (Homo sapiens, UniProt P08709); assay: TF-VIIa assay (chromogenic substrate hydrolysis); settings: reported only as less than or greater than 0.1 uM
T1 construct: conversion of coagulation factor VII to VIIa by factor Xa; purchased American Diagnostica, Greenwich CT; host or cells: soluble TF made in house in E. coli
T1 sequence (P08709 213-466 limits assumed): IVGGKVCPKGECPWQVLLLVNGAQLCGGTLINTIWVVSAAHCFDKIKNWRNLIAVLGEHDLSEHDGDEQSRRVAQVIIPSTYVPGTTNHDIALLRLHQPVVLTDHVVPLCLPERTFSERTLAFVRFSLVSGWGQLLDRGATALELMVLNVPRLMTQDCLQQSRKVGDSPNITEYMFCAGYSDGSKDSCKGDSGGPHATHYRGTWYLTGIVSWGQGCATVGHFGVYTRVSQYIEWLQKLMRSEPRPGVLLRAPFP
T1 sequence (P08709 61-212 limits assumed): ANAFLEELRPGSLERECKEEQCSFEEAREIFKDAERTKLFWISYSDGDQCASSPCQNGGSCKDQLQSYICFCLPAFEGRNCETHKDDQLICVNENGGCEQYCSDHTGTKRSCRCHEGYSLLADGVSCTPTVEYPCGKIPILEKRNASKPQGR
T1 sequence (P13726 33-251 partner limits assumed): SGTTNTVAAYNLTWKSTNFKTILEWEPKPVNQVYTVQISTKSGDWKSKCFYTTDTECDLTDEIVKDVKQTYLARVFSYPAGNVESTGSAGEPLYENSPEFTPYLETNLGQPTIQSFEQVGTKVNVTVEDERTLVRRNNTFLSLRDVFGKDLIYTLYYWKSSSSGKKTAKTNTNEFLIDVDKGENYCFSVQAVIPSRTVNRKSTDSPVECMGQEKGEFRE
In short: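 Chromogenic read at OD405, compared with control for percent inhibition. Substrate N-methylsulfonyl-D-phe-gly-arg-p-nitroaniline at 0.4 mM is cleaved by recombinant human VIIa (2 nM) complexed with soluble TF (100 nM). Buffer: pH 8.0 Tris-HCl 50 mM, CaCl2 5 mM, NaCl 100 mM, BSA 0.1%.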

Human thrombin = target: T2, Human thrombin (Homo sapiens, UniProt P00734); assay: Thrombin assay (chromogenic substrate); settings: reported only as less than or greater than 30 uM; read-out: Thrombin (II) IC50
T2 construct: converts prothrombin (II) to thrombin (IIa); purchased Calbiochem, La Jolla, Calif
In short: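 Percent inhibition derived by comparing OD405 nm of compound-treated and control samples. Thrombin cleavage of a p-nitroanilide chromogenic substrate provides the signal.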

Human factor Xa = target: T3, Human factor Xa (Homo sapiens, UniProt P00742); assay: Xa assay (chromogenic substrate S-2765); settings: reported only as less than or greater than 30 uM; read-out: Factor Xa (II) IC50
T3 construct: purchased Enzyme Research Laboratories, South Bend Ind
T3 sequence (P00742 235-488 limits assumed): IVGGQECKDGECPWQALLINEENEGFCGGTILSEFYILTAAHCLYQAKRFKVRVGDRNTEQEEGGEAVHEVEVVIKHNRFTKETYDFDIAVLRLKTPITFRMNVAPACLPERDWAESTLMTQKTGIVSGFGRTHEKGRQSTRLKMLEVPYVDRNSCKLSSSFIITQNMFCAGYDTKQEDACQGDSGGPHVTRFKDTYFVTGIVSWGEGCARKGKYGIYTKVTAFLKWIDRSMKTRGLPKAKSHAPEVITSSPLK
T3 sequence (P00742 41-179 limits assumed): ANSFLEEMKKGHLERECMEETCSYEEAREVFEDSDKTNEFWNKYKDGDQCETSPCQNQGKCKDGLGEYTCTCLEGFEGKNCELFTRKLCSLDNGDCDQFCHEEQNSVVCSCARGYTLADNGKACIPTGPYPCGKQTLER
In short: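 Chromogenic readout: S-2765 hydrolysis (0.15 mM) by 0.3 nM human FXa was monitored at 405 nm after 60 min at room temperature, with a time-zero background read. Buffer: 50 mM Tris-HCl, pH 8.0, 100 mM NaCl, 0.1% BSA. Inhibition is relative to buffer-only controls.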

[2] = test system: Normal human pooled plasma; assay: Prothrombin time (PT) clotting assay; settings: concentration at which prothrombin time is prolonged by 2x normal, reported as less than or greater than 50 uM
In short: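 Normal human pooled plasma incubated with 100 uM compound or saline, then thromboplastin (human tissue factor) added and clotting time recorded in a coagulation machine. Compounds exceeding 3× normal PT (11.0 s) are titrated to find the concentration doubling PT.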

Structure (SMILES) | pIC50 [1] | pIC50 (Human thrombin) | pIC50 (Human factor Xa) | PT (Prothrombin time) 2xPT [2]
CC(C)Nc1ncc(-c2cc(N)cc(NCCc3ccccc3)c2)n(CC(=O)NCc2ccc(C(=N)N)cc2)c1=O [Example 110, N-{4-[amino(imino)methyl]benzyl}-2-[6-{3-amino-5-[(2-phenylethyl)amino]phenyl}-3-(isopropylamino)-2-oxopyrazin-1 (2H)-yl]acetamide trifluoroacetate] | > 7.00 | < 4.52 | < 4.52 | <50.0 µM
CC(C)Nc1ncc(-c2cc(N)cc(NCCCc3ccccc3)c2)n(CC(=O)NCc2ccc(C(=N)N)cc2)c1=O [Example 111] | > 7.00 | < 4.52 | < 4.52 | <50.0 µM
CC(C)CC(=O)Nc1cc(N)cc(-c2cnc(NC(C)C)c(=O)n2CC(=O)NCc2ccc(C(=N)N)cc2)c1 [Example 112] | > 7.00 | > 4.52 | < 4.52 | <50.0 µM
CC(C)Nc1ncc(-c2cc(N)cc(NC(=O)Nc3ccccc3)c2)n(CC(=O)NCc2ccc(C(=N)N)cc2)c1=O [Example 113] | > 7.00 | < 4.52 | < 4.52 | <50.0 µM
CC(C)Nc1ncc(-c2cc(N)cc(NC(=O)NCc3ccccc3)c2)n(CC(=O)NCc2ccc(C(=N)N)cc2)c1=O [Example 114] | > 7.00 | < 4.52 | < 4.52 | <50.0 µM
CC(C)Nc1ncc(-c2cc(N)cc(C(F)(F)F)c2)n(CC(=O)NCc2cc(O)c(C(=N)N)c(F)c2)c1=O.O=C(O)C(F)(F)F [Example 116] | < 7.00 | < 4.52 | > 4.52 | <50.0 µM
CC(C)Nc1ncc(-c2cc(N)cc(C(=O)O)c2)n(CC(=O)NCc2ccc(C(=N)N)cc2)c1=O.O=C(O)C(F)(F)F [Example 118] | > 7.00 | < 4.52 | < 4.52 | <50.0 µM
COCCNC(=O)c1cc(N)cc(-c2cnc(NC(C)C)c(=O)n2CC(=O)NCc2ccc(C(=N)N)cc2)c1.O=C(O)C(F)(F)F [Example 119] | > 7.00 | > 4.52 | < 4.52 | <50.0 µM
COc1cc(N)cc(-c2cnc(NC(C)C)c(=O)n2CC(=O)NCc2cc(O)c(C(=N)N)c(F)c2)c1.Cl.Cl [Example 123] | > 7.00 | < 4.52 | < 4.52 | <50.0 µM
CC(C)Nc1ncc(-c2cc(N)cc(C(=O)OC(C)C)c2)n(CC(=O)NCc2ccc(C(=N)N)cc2)c1=O.O=C(O)C(F)(F)F [Example 124, Isopropyl 3-amino-5-[1-[2-({4-[amino(imino)methyl]benzyl}amino)-2-oxoethyl]-5-(isopropylamino)-6-oxo-1,6-dihydropyrazin-2-yl]benzoate] | > 7.00 | < 4.52 | < 4.52 | <50.0 µM
CC[C@H](C)NC(=O)c1cc(N)cc(-c2cnc(NC(C)C)c(=O)n2CC(=O)NCc2ccc(C(=N)N)cc2)c1.O=C(O)C(F)(F)F [Example 127] | > 7.00 | > 4.52 | < 4.52 | <50.0 µM
CCCC(C)C(=O)Nc1cc(N)cc(-c2cnc(NC(C)C)c(=O)n2CC(=O)NCc2ccc(C(=N)N)cc2)c1.O=C(O)C(F)(F)F.O=C(O)C(F)(F)F (centres unmarked) [Example 128] | > 7.00 | < 4.52 | < 4.52 | <50.0 µM
CCCC(=O)Nc1cc(N)cc(-c2cnc(NC(C)C)c(=O)n2CC(=O)NCc2ccc(C(=N)N)cc2)c1.O=C(O)C(F)(F)F.O=C(O)C(F)(F)F [Example 130] | > 7.00 | > 4.52 | < 4.52 | <50.0 µM
CCC(C)C(=O)Nc1cc(N)cc(-c2cnc(NC(C)C)c(=O)n2CC(=O)NCc2ccc(C(=N)N)cc2)c1.O=C(O)C(F)(F)F.O=C(O)C(F)(F)F (centres unmarked) [Example 131] | > 7.00 | > 4.52 | < 4.52 | <50.0 µM
